Legend:
[1] = biological target: T1, Alpha-1B adrenergic receptor (Homo sapiens) (UniProt P35368); assay: Alpha1B (h) Eurofins-Cerep binding assay; set-up: ligand concentration 0.15 nM; details: filed as antagonist, Compound concentration 10.0 uM
T1 sequence (whole entry): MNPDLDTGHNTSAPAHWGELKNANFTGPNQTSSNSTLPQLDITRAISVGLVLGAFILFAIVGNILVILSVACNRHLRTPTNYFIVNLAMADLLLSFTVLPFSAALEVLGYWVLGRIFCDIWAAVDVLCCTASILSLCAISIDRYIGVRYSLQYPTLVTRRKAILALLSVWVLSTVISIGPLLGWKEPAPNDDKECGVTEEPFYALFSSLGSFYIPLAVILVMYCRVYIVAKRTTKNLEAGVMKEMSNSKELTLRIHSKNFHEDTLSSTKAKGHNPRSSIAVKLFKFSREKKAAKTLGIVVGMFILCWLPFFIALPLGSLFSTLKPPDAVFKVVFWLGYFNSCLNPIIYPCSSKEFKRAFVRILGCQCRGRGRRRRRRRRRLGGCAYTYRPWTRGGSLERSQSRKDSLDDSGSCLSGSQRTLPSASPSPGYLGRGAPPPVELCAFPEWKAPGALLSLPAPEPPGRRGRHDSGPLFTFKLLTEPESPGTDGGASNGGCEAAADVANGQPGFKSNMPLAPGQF

[2] = biological target: T2, Alpha-2B adrenergic receptor (Homo sapiens) (UniProt P18089); assay: Alpha2B (h) Eurofins-Cerep binding assay; set-up: ligand concentration 2.5 nM; details: filed as antagonist, Compound concentration 10.0 uM
T2 sequence (whole entry): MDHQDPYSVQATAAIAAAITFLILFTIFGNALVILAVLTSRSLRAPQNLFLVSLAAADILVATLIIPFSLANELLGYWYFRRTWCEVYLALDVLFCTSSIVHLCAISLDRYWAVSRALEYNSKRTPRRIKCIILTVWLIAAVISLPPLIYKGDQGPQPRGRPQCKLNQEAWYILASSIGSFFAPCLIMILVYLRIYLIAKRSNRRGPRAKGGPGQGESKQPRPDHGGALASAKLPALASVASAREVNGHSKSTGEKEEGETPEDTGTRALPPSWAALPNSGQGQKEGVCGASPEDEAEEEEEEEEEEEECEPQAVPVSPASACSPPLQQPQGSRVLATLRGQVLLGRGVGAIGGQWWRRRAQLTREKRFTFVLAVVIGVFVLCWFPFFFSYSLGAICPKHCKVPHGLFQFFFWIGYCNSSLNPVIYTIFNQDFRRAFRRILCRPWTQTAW

[3] = biological target: Motilin receptor (Homo sapiens) (UniProt O43193); assay: motilin (h Eurofins-Cerep binding assay; set-up: ligand concentration 0.05 nM; details: filed as agonist, Compound concentration 10.0 uM
[4] = biological target: T3, Muscarinic acetylcholine receptor M1 (Homo sapiens) (UniProt P11229); assay: M1 (h) Eurofins-Cerep binding assay; set-up: ligand concentration 2 nM; details: filed as antagonist, Compound concentration 10.0 uM
T3 sequence (whole entry): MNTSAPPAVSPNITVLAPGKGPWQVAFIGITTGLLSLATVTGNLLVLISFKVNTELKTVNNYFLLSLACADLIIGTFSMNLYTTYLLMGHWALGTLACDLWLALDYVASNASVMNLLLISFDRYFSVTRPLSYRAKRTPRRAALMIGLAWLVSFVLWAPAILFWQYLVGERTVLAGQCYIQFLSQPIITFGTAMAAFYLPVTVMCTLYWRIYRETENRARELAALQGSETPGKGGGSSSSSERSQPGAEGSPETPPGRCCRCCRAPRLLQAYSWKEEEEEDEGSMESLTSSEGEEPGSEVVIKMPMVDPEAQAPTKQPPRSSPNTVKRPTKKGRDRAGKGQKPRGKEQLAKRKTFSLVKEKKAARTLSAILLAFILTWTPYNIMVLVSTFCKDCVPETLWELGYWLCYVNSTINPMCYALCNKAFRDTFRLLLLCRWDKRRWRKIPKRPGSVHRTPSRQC

[5] = test system: Tyrosine-protein kinase ABL1 (Homo sapiens), P00519 [E255K]; details: Compound concentration 1000.0 nM
[6] = biological target: Atypical kinase COQ8B, mitochondrial (Homo sapiens) (UniProt Q96D53); details: Compound concentration 1000.0 nM
[7] = biological target: Fibroblast growth factor receptor 3 (Homo sapiens) (UniProt P22607); details: Compound concentration 1000.0 nM
[8] = biological target: Vascular endothelial growth factor receptor 1 (Homo sapiens) (UniProt P17948); details: Compound concentration 1000.0 nM
[9] = biological target: Beta-adrenergic receptor kinase 1 (Homo sapiens) (UniProt P25098); details: Compound concentration 1000.0 nM
[10] = test system: Mast/stem cell growth factor receptor Kit (Homo sapiens), P10721 [D816V]; details: Compound concentration 1000.0 nM
[11] = biological target: Mitogen-activated protein kinase kinase kinase 3 (Homo sapiens) (UniProt Q99759); details: Compound concentration 1000.0 nM
[12] = biological target: MAP kinase-activated protein kinase 2 (Homo sapiens) (UniProt P49137); details: Compound concentration 1000.0 nM
[13] = test system: Phosphatidylinositol 4,5-bisphosphate 3-kinase catalytic subunit alpha isoform (Homo sapiens), P42336 [E545A]; details: Compound concentration 1000.0 nM
[14] = biological target: Phosphatidylinositol 5-phosphate 4-kinase type-2 beta (Homo sapiens) (UniProt P78356); details: Compound concentration 1000.0 nM
[15] = biological target: Serine/threonine-protein kinase D1 (Homo sapiens) (UniProt Q15139); details: Compound concentration 1000.0 nM
[16] = biological target: Serine/threonine-protein kinase SBK1 (Homo sapiens) (UniProt Q52WX2); details: Compound concentration 1000.0 nM
[17] = biological target: Proto-oncogene tyrosine-protein kinase Src (Homo sapiens) (UniProt P12931); details: Compound concentration 1000.0 nM
[18] = biological target: Serine/threonine-protein kinase 35 (Homo sapiens) (UniProt Q8TDR2); details: Compound concentration 1000.0 nM
[19] = biological target: Tyrosine-protein kinase receptor Tie-1 (Homo sapiens) (UniProt P35590); details: Compound concentration 1000.0 nM
[20] = biological target: Non-receptor tyrosine-protein kinase TNK1 (Homo sapiens) (UniProt Q13470); details: Compound concentration 1000.0 nM
[21] = biological target: Testis-specific serine/threonine-protein kinase 1 (Homo sapiens) (UniProt Q9BXA7); details: Compound concentration 1000.0 nM
Chain of Testis-specific serine/threonine-protein kinase 1 (Homo sapiens) (Q9BXA7 whole entry): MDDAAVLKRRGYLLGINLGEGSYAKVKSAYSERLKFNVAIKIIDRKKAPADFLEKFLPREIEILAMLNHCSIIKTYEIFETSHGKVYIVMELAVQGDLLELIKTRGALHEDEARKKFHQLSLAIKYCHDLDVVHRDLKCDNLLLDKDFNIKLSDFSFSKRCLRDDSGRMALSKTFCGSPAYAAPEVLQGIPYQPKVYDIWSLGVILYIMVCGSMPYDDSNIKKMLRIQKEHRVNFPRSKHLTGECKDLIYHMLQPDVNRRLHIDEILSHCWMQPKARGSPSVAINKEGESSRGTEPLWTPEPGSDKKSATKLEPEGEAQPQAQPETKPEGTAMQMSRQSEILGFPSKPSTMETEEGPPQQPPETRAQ

Chain of Atypical kinase COQ8B, mitochondrial (Homo sapiens) (Q96D53 whole entry): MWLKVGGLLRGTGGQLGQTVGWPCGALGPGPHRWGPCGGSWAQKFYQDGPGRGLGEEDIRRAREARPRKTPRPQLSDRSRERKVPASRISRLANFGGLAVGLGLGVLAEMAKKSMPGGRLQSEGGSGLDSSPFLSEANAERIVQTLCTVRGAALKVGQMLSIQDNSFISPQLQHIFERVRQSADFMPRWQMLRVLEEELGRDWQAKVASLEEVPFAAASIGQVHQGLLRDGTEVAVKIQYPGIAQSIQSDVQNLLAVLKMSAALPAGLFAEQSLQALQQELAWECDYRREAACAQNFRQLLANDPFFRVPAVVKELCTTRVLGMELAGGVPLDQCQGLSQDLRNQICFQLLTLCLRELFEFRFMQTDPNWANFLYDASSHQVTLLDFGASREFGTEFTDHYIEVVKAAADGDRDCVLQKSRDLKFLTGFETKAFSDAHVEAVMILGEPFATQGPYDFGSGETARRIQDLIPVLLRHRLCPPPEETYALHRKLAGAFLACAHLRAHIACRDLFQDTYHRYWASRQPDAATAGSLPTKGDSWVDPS
Chain of Serine/threonine-protein kinase SBK1 (Homo sapiens) (Q52WX2 whole entry): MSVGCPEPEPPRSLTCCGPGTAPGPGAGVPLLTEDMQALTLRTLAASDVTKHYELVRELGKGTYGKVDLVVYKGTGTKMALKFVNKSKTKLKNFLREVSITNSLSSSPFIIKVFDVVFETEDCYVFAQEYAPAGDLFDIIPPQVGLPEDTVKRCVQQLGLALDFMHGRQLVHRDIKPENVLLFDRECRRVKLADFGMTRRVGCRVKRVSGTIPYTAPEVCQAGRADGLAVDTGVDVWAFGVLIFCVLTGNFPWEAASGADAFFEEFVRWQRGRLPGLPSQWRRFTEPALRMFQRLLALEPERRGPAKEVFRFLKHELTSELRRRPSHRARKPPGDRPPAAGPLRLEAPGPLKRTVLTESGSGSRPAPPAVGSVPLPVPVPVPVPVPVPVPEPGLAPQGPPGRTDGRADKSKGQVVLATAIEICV
Chain of MAP kinase-activated protein kinase 2 (Homo sapiens) (P49137 whole entry, looked up, canonical isoform): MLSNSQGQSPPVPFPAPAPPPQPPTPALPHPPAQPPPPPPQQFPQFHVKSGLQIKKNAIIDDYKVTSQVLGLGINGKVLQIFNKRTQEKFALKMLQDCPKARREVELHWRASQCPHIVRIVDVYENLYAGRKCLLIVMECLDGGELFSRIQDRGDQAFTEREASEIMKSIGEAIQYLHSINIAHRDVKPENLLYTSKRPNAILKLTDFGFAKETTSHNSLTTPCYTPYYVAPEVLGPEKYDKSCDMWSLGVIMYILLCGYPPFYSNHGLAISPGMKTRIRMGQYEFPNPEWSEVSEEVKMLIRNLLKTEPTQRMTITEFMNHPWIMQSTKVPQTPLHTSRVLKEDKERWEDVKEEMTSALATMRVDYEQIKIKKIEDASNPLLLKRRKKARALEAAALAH
Chain of Non-receptor tyrosine-protein kinase TNK1 (Homo sapiens) (Q13470 whole entry): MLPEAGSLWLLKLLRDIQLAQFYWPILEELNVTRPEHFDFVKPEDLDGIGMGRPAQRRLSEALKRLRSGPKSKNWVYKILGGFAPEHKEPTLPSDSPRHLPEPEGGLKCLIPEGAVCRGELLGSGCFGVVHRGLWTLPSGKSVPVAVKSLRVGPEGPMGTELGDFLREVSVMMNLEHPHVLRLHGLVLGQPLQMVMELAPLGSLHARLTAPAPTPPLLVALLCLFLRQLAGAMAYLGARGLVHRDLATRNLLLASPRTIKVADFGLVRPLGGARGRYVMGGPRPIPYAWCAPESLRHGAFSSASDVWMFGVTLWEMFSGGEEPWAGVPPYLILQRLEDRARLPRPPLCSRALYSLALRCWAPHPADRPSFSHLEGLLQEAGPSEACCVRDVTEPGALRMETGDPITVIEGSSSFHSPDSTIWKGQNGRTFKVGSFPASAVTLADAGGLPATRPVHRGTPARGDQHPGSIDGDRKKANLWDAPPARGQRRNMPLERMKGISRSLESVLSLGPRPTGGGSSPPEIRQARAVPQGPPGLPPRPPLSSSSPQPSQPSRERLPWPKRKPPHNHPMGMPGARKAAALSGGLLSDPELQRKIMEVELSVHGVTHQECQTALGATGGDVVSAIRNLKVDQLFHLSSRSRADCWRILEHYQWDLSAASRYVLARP
Chain of Phosphatidylinositol 4,5-bisphosphate 3-kinase catalytic subunit alpha isoform (Homo sapiens), P42336 [E545A] (P42336 whole entry E545A, canonical isoform): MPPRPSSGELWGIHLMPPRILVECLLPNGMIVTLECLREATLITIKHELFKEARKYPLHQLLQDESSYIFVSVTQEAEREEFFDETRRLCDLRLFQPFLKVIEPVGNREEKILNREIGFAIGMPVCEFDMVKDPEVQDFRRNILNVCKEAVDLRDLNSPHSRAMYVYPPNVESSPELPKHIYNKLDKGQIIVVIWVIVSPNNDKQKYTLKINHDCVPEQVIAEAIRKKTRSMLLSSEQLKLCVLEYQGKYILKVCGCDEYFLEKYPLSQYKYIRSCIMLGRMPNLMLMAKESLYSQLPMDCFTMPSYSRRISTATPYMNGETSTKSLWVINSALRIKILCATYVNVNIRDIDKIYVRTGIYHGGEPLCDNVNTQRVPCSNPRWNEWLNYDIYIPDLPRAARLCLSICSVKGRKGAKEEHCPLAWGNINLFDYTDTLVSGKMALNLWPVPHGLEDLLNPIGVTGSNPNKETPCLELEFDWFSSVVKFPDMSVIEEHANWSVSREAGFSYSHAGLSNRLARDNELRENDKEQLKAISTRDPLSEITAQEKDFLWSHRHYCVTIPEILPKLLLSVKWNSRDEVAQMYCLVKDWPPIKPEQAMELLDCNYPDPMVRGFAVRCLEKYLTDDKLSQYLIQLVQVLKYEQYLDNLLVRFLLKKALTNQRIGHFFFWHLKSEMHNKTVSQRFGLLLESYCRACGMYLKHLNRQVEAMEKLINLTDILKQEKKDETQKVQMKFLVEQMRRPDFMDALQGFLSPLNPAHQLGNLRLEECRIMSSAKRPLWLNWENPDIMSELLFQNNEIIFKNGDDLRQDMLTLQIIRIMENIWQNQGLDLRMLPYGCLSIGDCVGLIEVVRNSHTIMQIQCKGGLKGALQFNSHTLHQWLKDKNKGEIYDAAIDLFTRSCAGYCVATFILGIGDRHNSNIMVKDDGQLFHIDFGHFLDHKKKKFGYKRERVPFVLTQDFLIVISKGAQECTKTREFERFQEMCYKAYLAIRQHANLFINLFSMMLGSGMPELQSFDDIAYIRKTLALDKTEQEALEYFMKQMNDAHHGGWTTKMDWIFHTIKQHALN
Chain of Mitogen-activated protein kinase kinase kinase 3 (Homo sapiens) (Q99759 whole entry): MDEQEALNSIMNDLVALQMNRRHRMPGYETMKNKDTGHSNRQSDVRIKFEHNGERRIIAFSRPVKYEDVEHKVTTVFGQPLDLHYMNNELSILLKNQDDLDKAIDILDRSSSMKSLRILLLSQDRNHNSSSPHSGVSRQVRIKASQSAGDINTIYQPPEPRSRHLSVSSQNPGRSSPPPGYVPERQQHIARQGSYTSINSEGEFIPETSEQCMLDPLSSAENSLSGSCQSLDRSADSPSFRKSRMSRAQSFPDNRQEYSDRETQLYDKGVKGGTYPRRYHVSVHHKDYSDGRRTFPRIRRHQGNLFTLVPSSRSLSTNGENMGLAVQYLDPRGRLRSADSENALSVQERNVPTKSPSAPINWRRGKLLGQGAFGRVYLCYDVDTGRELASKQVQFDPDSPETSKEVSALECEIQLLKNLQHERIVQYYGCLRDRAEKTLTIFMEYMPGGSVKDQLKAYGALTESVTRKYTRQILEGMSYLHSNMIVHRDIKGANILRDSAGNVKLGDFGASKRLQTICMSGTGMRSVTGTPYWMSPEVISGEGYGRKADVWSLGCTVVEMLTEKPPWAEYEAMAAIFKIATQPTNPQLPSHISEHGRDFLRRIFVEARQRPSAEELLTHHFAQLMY
Chain of Serine/threonine-protein kinase 35 (Homo sapiens) (Q8TDR2 whole entry): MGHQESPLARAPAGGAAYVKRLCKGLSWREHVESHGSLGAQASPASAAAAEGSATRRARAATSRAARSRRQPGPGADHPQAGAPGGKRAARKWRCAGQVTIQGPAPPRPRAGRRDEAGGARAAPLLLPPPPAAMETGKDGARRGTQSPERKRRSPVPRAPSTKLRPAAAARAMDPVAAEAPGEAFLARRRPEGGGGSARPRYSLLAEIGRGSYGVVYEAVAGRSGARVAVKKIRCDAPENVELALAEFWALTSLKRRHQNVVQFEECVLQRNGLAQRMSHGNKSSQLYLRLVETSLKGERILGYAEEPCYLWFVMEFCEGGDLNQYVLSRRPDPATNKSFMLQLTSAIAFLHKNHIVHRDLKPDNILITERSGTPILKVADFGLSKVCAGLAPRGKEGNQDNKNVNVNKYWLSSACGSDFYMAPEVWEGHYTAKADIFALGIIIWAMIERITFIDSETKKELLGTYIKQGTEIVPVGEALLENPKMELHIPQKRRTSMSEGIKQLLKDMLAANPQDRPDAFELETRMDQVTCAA

O=C(NS(=O)(=O)c1ccc(NCC2CCOCC2)c([N+](=O)[O-])c1)c1ccc(N2CCN(Cc3ccc(C(F)(F)F)cc3-c3ccc(Cl)cc3)CC2)cc1Oc1cnc2[nH]ccc2c1 [A-1210227]
inactive: residual activity [5] 91% | residual activity [6] 90% | residual activity [7] 100% | residual activity [8] 100% | residual activity [9] 91% | residual activity [10] 100% | residual activity [11] 82% | residual activity [12] 81% | residual activity [13] 86% | residual activity [14] 100% | residual activity [15] 89% | residual activity [16] 100% | residual activity [17] 76% | residual activity [18] 95% | residual activity [19] 100% | residual activity [20] 96% | residual activity [21] 100%
13.5%: % Inhibition of Control Specific Binding (Mean n=2) [1]
-0.2%: % Inhibition of Control Specific Binding (Mean n=2) [4]
-11.6%: % Inhibition of Control Specific Binding (Mean n=2) [2]
-13%: % Inhibition of Control Specific Binding (Mean n=2) [3]

CO[C@H]1CC[C@H](CNc2ccc(S(=O)(=O)NC(=O)c3ccc(N4CCN(CC5=C(c6ccc(Cl)cc6)CC(C)(C)CC5)CC4)cc3Oc3cnc4[nH]ccc4c3)cc2[N+](=O)[O-])CC1 [A-1211212]
15.4%: % Inhibition of Control Specific Binding (Mean n=2) [1]
inactive: residual activity [5] 74% | residual activity [6] 100% | residual activity [7] 95% | residual activity [8] 85% | residual activity [9] 85% | residual activity [10] 100% | residual activity [11] 83% | residual activity [12] 93% | residual activity [13] 67% | residual activity [14] 96% | residual activity [15] 76% | residual activity [16] 100% | residual activity [17] 78% | residual activity [18] 93% | residual activity [19] 100% | residual activity [20] 81% | residual activity [21] 67%
-7.2%: % Inhibition of Control Specific Binding (Mean n=2) [4]
-20.1%: % Inhibition of Control Specific Binding (Mean n=2) [2]
-20.5%: % Inhibition of Control Specific Binding (Mean n=2) [3]

Reference: ChEMBL document CHEMBL4507310, “Data for DCP probe A-1211212” (2021)
